Counter-ions that a name gives are not always drawn.

mGluR5 receptor, sequence (I3LUI7 19-1212): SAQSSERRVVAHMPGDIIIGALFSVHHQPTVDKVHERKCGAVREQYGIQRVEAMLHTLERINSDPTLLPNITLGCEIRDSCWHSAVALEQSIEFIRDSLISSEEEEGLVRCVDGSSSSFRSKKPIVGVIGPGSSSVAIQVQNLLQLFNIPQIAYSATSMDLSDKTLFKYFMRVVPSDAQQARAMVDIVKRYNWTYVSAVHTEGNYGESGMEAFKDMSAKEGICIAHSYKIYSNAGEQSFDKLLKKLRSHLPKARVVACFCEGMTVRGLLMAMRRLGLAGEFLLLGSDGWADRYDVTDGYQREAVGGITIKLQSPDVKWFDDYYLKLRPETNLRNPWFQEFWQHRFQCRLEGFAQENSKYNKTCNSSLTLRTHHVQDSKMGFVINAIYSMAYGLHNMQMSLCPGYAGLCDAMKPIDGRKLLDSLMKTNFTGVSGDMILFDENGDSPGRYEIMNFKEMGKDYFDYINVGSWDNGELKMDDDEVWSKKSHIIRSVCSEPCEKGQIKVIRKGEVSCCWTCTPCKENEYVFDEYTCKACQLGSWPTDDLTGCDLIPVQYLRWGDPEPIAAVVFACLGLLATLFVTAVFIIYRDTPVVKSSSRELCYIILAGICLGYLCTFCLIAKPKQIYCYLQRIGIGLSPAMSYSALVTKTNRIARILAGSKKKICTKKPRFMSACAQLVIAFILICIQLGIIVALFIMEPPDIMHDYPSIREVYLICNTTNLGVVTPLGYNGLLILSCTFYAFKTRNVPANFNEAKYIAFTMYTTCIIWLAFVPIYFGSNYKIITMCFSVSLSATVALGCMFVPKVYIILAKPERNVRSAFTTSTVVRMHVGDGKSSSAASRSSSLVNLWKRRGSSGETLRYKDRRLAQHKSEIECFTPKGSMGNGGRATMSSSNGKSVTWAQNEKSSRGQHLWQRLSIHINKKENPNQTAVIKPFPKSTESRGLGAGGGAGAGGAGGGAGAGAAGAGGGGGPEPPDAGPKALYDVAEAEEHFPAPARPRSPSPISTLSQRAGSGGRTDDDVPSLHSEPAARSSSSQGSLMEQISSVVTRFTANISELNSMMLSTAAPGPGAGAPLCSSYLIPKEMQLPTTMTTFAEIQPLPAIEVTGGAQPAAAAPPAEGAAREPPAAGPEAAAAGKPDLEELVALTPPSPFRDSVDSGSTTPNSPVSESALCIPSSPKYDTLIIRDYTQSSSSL

For the first assay, the target named is mGluR5 receptor (Sus scrofa, UniProt I3LUI7). Kind of assay: Affinity for the mGluR5 receptor: inhibition of 3[H]-MPEP binding in pig brain homogenate. To be noted: 10 μM compound, 5 nM 3[H]-MPEP, read-out: mGluR5 receptor inhibition of ^3[H]-MPEP binding [10 μM] in % at a concentration of the example compounds of 10 μM. As for the experimental part:
1. Method for Determining Affinity for the mGluR5 Receptor
Pig brain homogenate is produced by homogenisation (Polytron Pt 3000, Kinematica AG, 10,000 revolutions per minute for 90 seconds) of pig brain hemispheres without medulla, cerebellum and pons in a buffer of pH 8.0 (30 mM Hepes, Sigma, order number H3375+1 tablet Complete Roche Diagnostics, order number 1836145 made up to 100 ml) in a ratio of 1:20 (brain weight/volume) and differential centrifugation at 900×g and 40,000×g. 450 μg of protein from brain homogenate is incubated in each case in 250 μl incubation batches in 96-well microtitre plates with 5 nM 3[H]-MPEP (Tocris, order number R1212) (MPEP=2-methyl-6-[…]) and the compounds to be investigated (10 μM in the test) in the buffer (as above) at room temperature for 60 minutes.
The batches are then filtered with the assistance of a Brandel Cell Harvester (Brandel, Grade Robotic 9600) on Unifilter plates with glass filter mats (Perkin Elmer, order number 6005177) and then washed 3 times with buffer (as above) using 250 μl per sample. The filter plates are then dried for 60 minutes at 55° C. Then 30 μl of Ultima Gold™ scintillating material (Packard BioScience, order number 6013159) is added per well and after 3 hours the samples are measured using the β counter (Microbeta, Perkin Elmer). Nonspecific binding is determined by the addition of 10 μM MPEP (Tocris, order number 1212).
`CC(C)c1ccn2c(NC(C)(C)C)c(-c3ccc(C#Cc4ccccn4)cc3)nc2c1` [Example 307, N-tert-butyl-7-isopropyl-2-(4-(pyridin-2-ylethynyl)phenyl)imidazo[1,2-a]pyridin-3-amine]: the inhibition at 10 µM worked out at 88%.
Same read-out and setting: the same measure for `CC(C)(C)Nc1c(-c2cc(C#Cc3ccccc3)cs2)nc2cnccn12` [Example 55, tert-butyl-[2-(4-phenylethynyl-thiophen-2-yl)-imidazo[1,2-a]pyrazin-3-yl]-amine]: 77%; for `Clc1ccc(CCNc2c(-c3cc(C#Cc4ccccc4)cs3)nc3cc(-c4ccccc4)ccn23)cc1` [Example 228, N-(4-chlorophenethyl)-7-phenyl-2-(4-(phenylethynyl)thiophen-2-yl)imidazo[1,2-a]pyridin-3-amine]: 43%; for `Cc1cc(Br)cn2c(NCCc3cccs3)c(-c3cc(C#Cc4ccccc4)cs3)nc12` [Example 234, 6-bromo-8-methyl-2-(4-(phenylethynyl)thiophen-2-yl)-N-(2-(thiophen-2-yl)ethyl)imidazo[1,2-a]pyridin-3-amine]: 64%.
On the same count and under the same terms, the same measure for `Cc1ccn2c(NCc3ccc(F)cc3)c(-c3ccc(C#Cc4ccccc4)s3)nc2c1` [Example 51, (4-fluoro-benzyl)-[7-methyl-2-(5-phenylethynyl-thiophen-2-yl)-imidazo[1,2-a]pyridin-3-yl]-amine]: 89%; for `Cc1cc(Br)c2nc(-c3cccc(C#Cc4ccccn4)c3)c(NC(C)(C)C)n2c1` [Example 96, 8-bromo-N-tert-butyl-6-methyl-2-(3-(pyridin-2-ylethynyl)phenyl)imidazo[1,2-a]pyridin-3-amine]: 79%; for `C(#Cc1ccc(-c2nc3cnccn3c2N(Cc2cccnc2)Cc2cccnc2)s1)c1ccccc1` [Example 79, [2-(5-phenylethynyl-thiophen-2-yl)-imidazo[1,2-a]pyrazin-3-yl]-bis-pyridin-3-ylmethyl-amine]: 35%.
Still for that read-out and setting: the same measure for `Cc1cc(C)n2c(NC3CCCCC3)c(-c3cccc(C#Cc4ccccn4)c3)nc2n1` [Example 292, N-cyclohexyl-5,7-dimethyl-2-(3-(pyridin-2-ylethynyl)phenyl)imidazo[1,2-a]pyrimidin-3-amine]: 88%.
For `CC(C)(C)CC(C)(C)Nc1c(-c2ccc(C#Cc3ccccn3)o2)nc2ccc(Cl)cn12` [Example 318, 6-chloro-2-(5-(pyridin-2-ylethynyl)furan-2-yl)-N-(2,4,4-trimethylpentan-2-yl)imidazo[1,2-a]pyridin-3-amine], the inhibition at 10 µM came to 43%.
Take `Cc1ccn2c(NC(C)(C)C)c(-c3cccc(C#Cc4ccccn4)c3)nc2c1` [Example 276, N-tert-butyl-7-methyl-2-(3-(pyridin-2-ylethynyl)phenyl)imidazo[1,2-a]pyridin-3-amine]: the inhibition at 10 µM was 93%.
On the same count and under the same terms, the same measure for `COc1cccc(CNc2c(-c3ccc(C#Cc4ccccc4)s3)nc3cc(C)cc(C)n23)c1` [Example 23, [5,7-dimethyl-2-(5-phenylethynyl-thiophen-2-yl)-imidazo[1,2-a]pyridin-3-yl]-(3-methoxy-benzyl)-amine]: 86%; for `CC(C)(C)CC(C)(C)Nc1c(-c2ccc(C#Cc3ccccc3)s2)nc2ccc(Cl)cn12` [Example 62, [6-chloro-2-(5-phenylethynyl-thiophen-2-yl)-imidazo[1,2-a]pyridin-3-yl]-(1,1,3,3-tetramethyl-butyl)-amine]: 26%; for `Cc1cc(C)n2c(NC(C)c3ccccc3)c(-c3ccc(C#Cc4ccccc4)s3)nc2c1` (centres unmarked) [Example 29, [5,7-dimethyl-2-(5-phenylethynyl-thiophen-2-yl)-imidazo[1,2-a]pyridin-3-yl]-(1-phenyl-ethyl)-amine]: 87%.
The same measure, in the same setting: the same measure for `CC(C)(C)Nc1c(-c2ccc(C#Cc3ccccn3)o2)nc2ccccn12` [Example 285, N-tert-butyl-2-(5-(pyridin-2-ylethynyl)furan-2-yl)imidazo[1,2-a]pyridin-3-amine]: 88%.
Regarding `CC(C)(C)c1ccn2c(Nc3ccc(F)c(Cl)c3)c(-c3ccc(C#Cc4ccccc4)s3)nc2c1` [Example 46, [7-tert-butyl-2-(5-phenylethynyl-thiophen-2-yl)-imidazo[1,2-a]pyridin-3-yl]-(3-chloro-4-fluoro-phenyl)-amine], the inhibition at 10 µM was 76%.
Still for that read-out and setting: the same measure for `Cc1ccn2c(NCC3CCCCC3)c(-c3ccc(C#Cc4ccccc4)s3)nc2c1` [Example 4, cyclohexylmethyl-[7-methyl-2-(5-phenylethynyl-thiophen-2-yl)-imidazo[1,2-a]pyridin-3-yl]-amine]: 91%.
Still for that read-out and setting: the same measure for `Cc1cc(Br)cn2c(NCCc3ccc(Cl)cc3)c(-c3cc(C#Cc4ccccc4)cs3)nc12` [Example 227, 6-bromo-N-(4-chlorophenethyl)-8-methyl-2-(4-(phenylethynyl)thiophen-2-yl)imidazo[1,2-a]pyridin-3-amine]: 61%; for `C(#Cc1ccc(-c2nc3ccccn3c2NC2CCCCC2)o1)c1ccccn1` [Example 286, N-cyclohexyl-2-(5-(pyridin-2-ylethynyl)furan-2-yl)imidazo[1,2-a]pyridin-3-amine]: 72%; for `C(#Cc1csc(-c2nc3cnccn3c2NCCc2cccs2)c1)c1ccccc1` [Example 203, 2-(4-(phenylethynyl)thiophen-2-yl)-N-(2-(thiophen-2-yl)ethyl)imidazo[1,2-a]pyrazin-3-amine]: 60%.
Still for that read-out and setting: the same measure for `COc1cccc(CNc2c(-c3ccc(C#Cc4ccccc4)s3)nc3c(C)cccn23)c1` [Example 22, (3-methoxy-benzyl)-[8-methyl-2-(5-phenylethynyl-thiophen-2-yl)-imidazo[1,2-a]pyridin-3-yl]-amine]: 84%.
For `CC(C)(C)CC(C)(C)Nc1c(-c2ccc(C#Cc3ccccn3)cc2)nc2c(Cl)cc(C(F)(F)F)cn12` [Example 241, 8-chloro-2-(4-(pyridin-2-ylethynyl)phenyl)-6-(trifluoromethyl)-N-(2,4,4-trimethylpentan-2-yl)imidazo[1,2-a]pyridin-3-amine], the inhibition at 10 µM was found to be 65%.
Still for that read-out and setting: the same measure for `CC(C)(C)CC(C)(C)Nc1c(-c2ccc(C#Cc3ccccc3)s2)nc2c(Cl)cc(Cl)cn12` [Example 63, [6,8-dichloro-2-(5-phenylethynyl-thiophen-2-yl)-imidazo[1,2-a]pyridin-3-yl]-(1,1,3,3-tetramethyl-butyl)-amine]: 65%; for `C(#Cc1ccccn1)c1cccc(-c2nc3ncccn3c2NC2CCCCC2)c1` [Example 254, N-cyclohexyl-2-(3-(pyridin-2-ylethynyl)phenyl)imidazo[1,2-a]pyrimidin-3-amine]: 77%.

Staying with this assay, now noted: 3[H]-MPEP binding.
Regarding `Cc1ccc(C#Cc2ccc(-c3nc4cnccn4c3NC(C)(C)C)s2)s1` [Example 135, N-tert-butyl-2-(5-((5-methylthiophen-2-yl)ethynyl)thiophen-2-yl)imidazo[1,2-a]pyrazin-3-amine hydrochloride], the IC50 is 1200 nM.
Same read-out and setting: the same measure for `CC(C)(C)Nc1c(-c2ccc(C#Cc3cnccn3)s2)nc2cnccn12` [Example 107, N-tert-butyl-2-(5-(pyrazin-2-ylethynyl)thiophen-2-yl)imidazo[1,2-a]pyrazin-3-amine]: 52 nM; for `CC(C)(C)Nc1c(-c2ccc(C#Cc3cscn3)s2)nc2cnccn12` [Example 152, N-tert-butyl-2-(5-(thiazol-4-ylethynyl)thiophen-2-yl)imidazo[1,2-a]pyrazin-3-amine hydrochloride]: 23 nM; for `CC(C)(C)Nc1c(-c2ccc(C#Cc3cccc(N)n3)s2)nc2cnccn12` [Example 136, 2-(5-((6-aminopyridin-2-yl)ethynyl)thiophen-2-yl)-N-tert-butylimidazo[1,2-a]pyrazin-3-amine hydrochloride]: 13800 nM.
`Cc1cccn2c(NC(C)(C)C)c(-c3ccc(C#Cc4ccccc4)s3)nc12` [Example 97, N-tert-butyl-8-methyl-2-(5-(phenylethynyl)thiophen-2-yl)imidazo[1,2-a]pyridin-3-amine] yielded an IC50 of 590 nM.
Still for that read-out and setting: the same measure for `CC(C)(C)Nc1c(-c2ccc(C#Cc3ccc(N)cc3)s2)nc2cnccn12` [Example 108, 2-(5-((4-aminophenyl)ethynyl)thiophen-2-yl)-N-tert-butylimidazo[1,2-a]pyrazin-3-amine]: 1240 nM; for `CC(C)(C)CC(C)(C)Nc1c(-c2ccc(C#Cc3ccccn3)s2)nc2ccccn12` [Example 324, [2-(5-pyridin-2-ylethynyl-thiophen-2-yl)-imidazo[1,2-a]pyridin-3-yl]-(1,1,3,3-tetramethyl-butyl)-amine]: 59 nM.
Same read-out and setting: the same measure for `CCNc1c(-c2ccc(C#Cc3ccccc3)s2)nc2cnccn12` [Example 68, ethyl-[2-(5-phenylethynyl-thiophen-2-yl)-imidazo[1,2-a]pyrazin-3-yl]-amine]: 2320 nM; for `CC(C)(C)Nc1c(-c2ccc(C#Cc3ccccc3)o2)nc2cnccn12` [Example 95, N-tert-butyl-2-(5-(phenylethynyl)furan-2-yl)imidazo[1,2-a]pyrazin-3-amine]: 1740 nM.

In general, IC50 refers to the concentration needed to halve the response being measured.
